pIC50: −log10 of the molar value.

UniProt Q16552, sequence (Q16552 with tags, fused parts or gaps K93Q): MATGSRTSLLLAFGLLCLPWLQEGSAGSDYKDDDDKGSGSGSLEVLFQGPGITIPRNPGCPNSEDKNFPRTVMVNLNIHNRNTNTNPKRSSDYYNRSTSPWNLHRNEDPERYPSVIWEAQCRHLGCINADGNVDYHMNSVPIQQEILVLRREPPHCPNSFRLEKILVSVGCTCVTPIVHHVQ

The first assay relates to IL-17A-induced G-CSF production in human normal keratinocyte (NHK). The assay can be described thus: NHK assay: IL-17A-induced G-CSF production in normal human keratinocytes. Format: cell-based. Conditions: Homo sapiens, Keratinocyte; IL-17A 5 ng/mL, 24 h at 37° C., G-CSF by HTRF; simple average if tested more than once. On the procedure:
IL-17A acts directly on keratinocytes through binding to dimeric receptor IL-17RA/RC and drives the production of a number of inflammatory mediators known to be elevated in psoriasis lesional tissue. IL-17A small molecule inhibitors that block the IL-17A to interact with IL-17R would inhibit the IL-17A signaling in its targeted cells such as keratinocytes. The compound functional activity is evaluated for its impact on IL-17A-induced G-CSF production in human normal keratinocyte (NHK).
Adult normal human keratinocytes are cultured in keratinocyte growth medium (Lonza) in a flask till reaching ˜90% confluence, then cells are transferred to a 384-well plate at density of 3000-4000 cell/well. Recombinant human IL-17A (Gibco PHC9174) is pre-incubated with titrated compound or DMSO for 1 h at rt then added to the cell culture plate. The final concentration of IL-17A is 5 ng/mL and DMSO is 0.2%, in the culture containing 5% FBS. Cells are cultured/treated for 24 h at 37° C. Supernatants are collected and G-CSF production is measured through HTRF technology using Human G-CSF Kit (CisBio). G-CSF concentration was extrapolated from the standard curve and IC50 is determined using GraphPad Prism. Cell viability is also evaluated using CellTiter-Glo kit (Promega) and effect of compound on cell viability is compared to DMSO control.
Background: Time-resolved FRET reads energy transfer from a long-lived donor to a nearby acceptor.
One may read the pIC50 as the negative decadic logarithm of the IC50, by convention in mol/L. The low end stands for a large IC50, the high end for a small IC50. Regarding `[2H]C1([2H])[C@@H](C(F)(F)F)NC(=O)N1[C@H](COC)c1cnn2cc([C@H](COC(C)(C)C(F)(F)F)NC(=O)c3nonc3C3CC3)nc2c1` (relative stereo) [Example 16, 4-Cyclopropyl-N—((R)-1-(7-((S)-2-methoxy-1-((S*)-2-oxo-4-(trifluoromethyl)imidazolidin-1-yl-5,5-d2)ethyl)imidazo[1,2-b]pyridazin-2-yl)-2-(1,1,1-trifluoro-2-methylpropan-2-yl)oxy)ethyl)-1,2,5-oxadiazole-3-carboxamide], the pIC50 was greater than 5.40.

In the case of `COC[C@H](c1cnn2cc([C@H](COC(C)(C)C(F)(F)F)NC(=O)[C@@H]3C[C@H]3C(F)(F)F)nc2c1)N1C[C@@H](C(F)(F)F)NC1=O` (relative stereo) [Example 32, (1R*,2R*)—N—((R)-1-(7-((S)-2-Methoxy-((S)-2-oxo-4-(trifluoromethyl)imidazolidin-1-yl)ethyl)imidazo[1,2-b]pyridazin-2-yl)-2-(1,1,1-trifluoro-2-methylpropan-2-yl)oxy)ethyl)-2-(trifluoromethyl)cyclopropane-1-carboxamide], the negative logarithm of the IC50 (pIC50) was greater than 5.40. Take `COC[C@H](c1cnn2cc([C@H](COC(C)(C)C(F)(F)F)NC(=O)[C@H]3C[C@@H]3C(F)(F)F)nc2c1)N1C[C@@H](C(F)(F)F)NC1=O` (relative stereo) [Example 33, (1S*,2S*)—N—((R)-1-(7-((S)-2-Methoxy-1-((S)-2-oxo-4-(trifluoromethyl)imidazolidin-1-yl)ethyl)imidazo[1,2-b]pyridazin-2-yl)-2-(1,1,1-trifluoro-2-methylpropan-2-yl)oxy)ethyl)-2-(trifluoromethyl)cyclopropane-1-carboxamide]: the pIC50 is greater than 5.40. With `O=C(N[C@H](c1cn2ncc(CN3C(=O)N[C@H]4CC(F)(F)C[C@H]43)cc2n1)C1CCC(F)(F)CC1)c1nonc1C1CC1` (single isomer, unassigned) [Example 8, 4-Cyclopropyl-N—((S)-(7-(((3aS*,6aR*)-5,5-difluoro-2-oxohexahydrocyclopenta[d]imidazol-1(2H)-yl)methyl)imidazo[1,2-b]pyridazin-2-yl)(4,4-difluorocyclohexyl)methyl)-1,2,5-oxadiazole-3-carboxamide], the negative-log IC50 (pIC50) is greater than 5.40.

As to `COC[C@H](c1cnn2cc([C@H](COC(C)(C)C(F)(F)F)NC(=O)c3nonc3C)nc2c1)N1C[C@@](C)(C(F)(F)F)NC1=O` (single isomer, unassigned) [Example 30], the pIC50 was greater than 5.40. `CC(C)n1nccc1C(=O)N[C@H](c1cn2ncc([C@H](COC3CC3)N3C[C@@H](C(F)(F)F)NC3=O)cc2n1)C1CCC(F)(F)CC1` (single isomer, unassigned) [Example 44] gave a pIC50 greater than 5.40. The molecule `[2H]C1([2H])N([C@H](COC)c2cnn3cc([C@H](COC(C)(C)C(F)(F)F)NC(=O)c4nonc4C4CC4)nc3c2)C(=O)NC1([2H])C(F)(F)F` (stereo in doubt) [Example 34, 4-Cyclopropyl-N—((R)-1-(7-((S)-2-methoxy-1-((R)-2-oxo-4-(trifluoromethyl)imidazolidin-1-yl-4,5,5-d3)ethyl)imidazo[1,2-b]pyridazin-2-yl)-2-((1,1,1-trifluoro-2-methylpropan-2-yl)oxy)ethyl)-1,2,5-oxadiazole-3-carboxamide] showed a pIC50 greater than 5.40. Consider `[2H]C1([2H])N([C@H](COC)c2cnn3cc([C@H](COC(C)(C)C(F)(F)F)NC(=O)c4nonc4C)nc3c2)C(=O)NC1([2H])C(F)(F)F` (stereo in doubt) [Example 35, N—((R)-1-(7-((S)-2-Methoxy-1-((R)-2-oxo-4-(trifluoromethyl)imidazolidin-1-yl-4,5,5-d3)ethyl)imidazo[1,2-b]pyridazin-2-yl)-2-((1,1,1-trifluoro-2-methylpropan-2-yl)oxy)ethyl)-4-methyl-1,2,5-oxadiazole-3-carboxamide], for which the pIC50 was greater than 5.40.

In the case of `COC[C@H](c1cnn2cc([C@H](CC(C)(C)C(F)(F)F)NC(=O)c3nonc3C3CC3)nc2c1)N1C[C@@H](C(F)(F)F)NC1=O` [Example 13, 4-Cyclopropyl-N—((S)-4,4,4-trifluoro-1-(7-((S)-2-methoxy-1-((S)-2-oxo-4-(trifluoromethyl)imidazolidin-1-yl)ethyl)imidazo[1,2-b]pyridazin-2-yl)-3,3-dimethylbutyl)-1,2,5-oxadiazole-3-carboxamide], the pIC50 is greater than 5.40.

`COC[C@H](c1cnn2cc([C@H](CC(C)(C)C(F)(F)F)NC(=O)c3nonc3C)nc2c1)N1C[C@@H](C(F)(F)F)NC1=O` [Example 14, 4-Methyl-N—((S)-4,4,4-trifluoro-1-(7-((S)-2-methoxy-1-((S)-2-oxo-4-(trifluoromethyl)imidazolidin-1-yl)ethyl)imidazo[1,2-b]pyridazin-2-yl)-3,3-dimethylbutyl)-1,2,5-oxadiazole-3-carboxamide] had a pIC50 greater than 5.40. Take `COC[C@H](c1cnn2cc([C@H](CC(C)(C)C(F)(F)F)NC(=O)c3ccnn3C(C)C)nc2c1)N1C[C@@H](C(F)(F)F)NC1=O` [Example 15, 1-Isopropyl-N—((S)-4,4,4-trifluoro-1-(7-((S)-2-methoxy-((S)-2-oxo-4-(trifluoromethyl)imidazolidin-1-yl)ethyl)imidazo[1,2-b]pyridazin-2-yl)-3,3-dimethylbutyl)-1H-pyrazole-5-carboxamide]: the pIC50 is greater than 5.40. In turn, `Cc1nonc1C(=O)N[C@H](c1cn2ncc([C@@H](C3CC3)N3CC4(CC4)NC3=O)cc2n1)C1CCC(F)(F)CC1` [Example 21, N—[(S)—[7-[(R)-Cyclopropyl-(6-oxo-5,7-diazaspiro[2.4]heptan-5-yl)methyl]imidazo[1,2-b]pyridazin-2-yl]-(4,4-difluorocyclohexyl)methyl]-4-methyl-1,2,5-oxadiazole-3-carboxamide] had a pIC50 greater than 5.40. The molecule `CC(C)(OC[C@H](NC(=O)c1nonc1C1CC1)c1cn2ncc(CN3C[C@@H](C(F)(F)F)NC3=O)cc2n1)C(F)(F)F` [Example 24] showed a pIC50 greater than 5.40. The same measure, in the same setting: to `Cc1nonc1C(=O)N[C@H](c1cn2ncc(CN3C[C@@](C)(C(F)(F)F)NC3=O)cc2n1)C1CCC(F)(F)CC1` [Example 28, N—((S)—(4,4-Difluorocyclohexyl)(7-(((S)-4-methyl-2-oxo-4-(trifluoromethyl)imidazolidin-1-yl)methyl)imidazo[1,2-b]pyridazin-2-yl)methyl)-4-methyl-1,2,5-oxadiazole-3-carboxamide] belongs greater than 5.40; to `C[C@@]1(C(F)(F)F)CN(Cc2cnn3cc([C@@H](NC(=O)c4nonc4C4CC4)C4CCC(F)(F)CC4)nc3c2)C(=O)N1` [Example 29], greater than 5.40; to `Cc1nonc1C(=O)N[C@@H](CCC(C)(C)C(F)(F)F)c1cn2ncc([C@@H](COC3CC3)N3C[C@@H](C(F)(F)F)NC3=O)cc2n1` [Example 38, N—((S)-1-(7-((S)-2-Cyclopropoxy-((S)-2-oxo-4-(trifluoromethyl)imidazolidin-1-yl)ethyl)imidazo[1,2-b]pyridazin-2-yl)-5,5,5-trifluoro-4,4-dimethylpentyl)-4-methyl-1,2,5-oxadiazole-3-carboxamide], greater than 5.40.

`CC(C)(CC[C@H](NC(=O)c1nonc1C1CC1)c1cn2ncc([C@@H](COC3CC3)N3C[C@@H](C(F)(F)F)NC3=O)cc2n1)C(F)(F)F` [Example 39, N—((S)-1-(7-((S)-2-Cyclopropoxy-((S)-2-oxo-4-(trifluoromethyl)imidazolidin-1-yl)ethyl)imidazo[1,2-b]pyridazin-2-yl)-5,5,5-trifluoro-4,4-dimethylpentyl)-4-cyclopropyl-1,2,5-oxadiazole-3-carboxamide]: the pIC50 is greater than 5.40.

For the next assay, the target named is IL-17A(FLAG-Tagged): IL-17RA(His-Tagged) (Homo sapiens, UniProt Q16552, K93Q). The assay can be described thus: IL-17A(FLAG-tagged):IL-17RA(His-tagged) binding disruption Eu-HTRF assay, Protocol 1. Conditions: FLAG tagged IL-17A at 2× final concentration (2.5 nM); simple average if tested more than once. The source says:
IL-17A(FLAG-Tagged): IL-17RA(His-Tagged) Binding Disruption Eu-HTRF Assay
An antibody directed against the FLAG tag of IL-17A (SEQ ID NO:1) is labeled with the HTRF donor chromophore (Europium-cryptate). IL-17A is present as a dimer that is “locked into” this quaternary structure due to the formation of loop-spanning […] disulfide bridges. The construct of IL-17RA used in the assay excludes the outer-membrane portion of the receptor and is fused to a C-terminal 10×His tag (SEQ ID NO:2). An antibody directed against the His tag of the IL-17RA chimera is labeled with the HTRF acceptor chromophore (“D2”). The fluorescence-resonance energy transfer (FRET) depends on the vicinity of the donor chromophore to the acceptor, and interruption of the binding between the IL-17A and IL-17RA causes the reduction/loss of FRET. Therefore, this assay allows to evaluate the compound effect on the binding IL-17A and IL-17RA by monitoring the fluorescence intensity of donor vs acceptor. The assay was run using either Protocol 1 or Protocol 2 described below.
Protocol 1: 40 nL of 2-fold serial diluted compound solution for total 22 dilution points is added into each well of a 1536-well, white, low-volume, non-binding plate (Greiner #782904), then 2 μl of FLAG tagged IL-17A at 2× final concentration (2.5 nM) in solution of PBS+0.01% Triton-X100 is added to each well. The assay plate is briefly centrifuged then incubated for 1 h at rt. A mixed solution is prepared containing 2×5 nM 10HIS×IL-17RA, 2×2.5 nM Eu-anti-FLAG (CISBIO), 2×5 nM D2-anti-HIS (CISBIO) in PBS+0.01% Triton-X100+200 mM Potassium Fluoride (Sigma 60238) and […] of mix is added to each well of the assay plate. The plate is briefly centrifuged then incubated for 2 h at rt. The HTRF intensities at the wavelength of donor (620 nm) and acceptor (665 nm) are measured using BMG Pherastar. The ratio between intensities at two wavelengths is calculated and plotted against the compound concentration and the data is fitted to a one-site competition model to yield IC50 of the compound.
Broadly, the IC50 is the concentration that inhibits the measured activity by half. In the case of `COC[C@H](c1cnn2cc([C@H](COC(C)(C)C(F)(F)F)NC(=O)[C@H]3C[C@@H]3C(F)(F)F)nc2c1)N1C[C@@H](C(F)(F)F)NC1=O` (relative stereo) [Example 33, (1S*,2S*)—N—((R)-1-(7-((S)-2-Methoxy-1-((S)-2-oxo-4-(trifluoromethyl)imidazolidin-1-yl)ethyl)imidazo[1,2-b]pyridazin-2-yl)-2-(1,1,1-trifluoro-2-methylpropan-2-yl)oxy)ethyl)-2-(trifluoromethyl)cyclopropane-1-carboxamide], the IC50 was less than 4 µM. On the same count and under the same terms, in the case of `O=C(N[C@H](c1cn2ncc(CN3C(=O)N[C@H]4CC(F)(F)C[C@H]43)cc2n1)C1CCC(F)(F)CC1)c1nonc1C1CC1` (single isomer, unassigned) [Example 8, 4-Cyclopropyl-N—((S)-(7-(((3aS*,6aR*)-5,5-difluoro-2-oxohexahydrocyclopenta[d]imidazol-1(2H)-yl)methyl)imidazo[1,2-b]pyridazin-2-yl)(4,4-difluorocyclohexyl)methyl)-1,2,5-oxadiazole-3-carboxamide] it was less than 4 µM.

Values taken from patent US12215111B2, “Imidazopyridazine IL-17 inhibitor compounds” (Janssen Pharmaceutica NV, priority 2021, dated 2025).
